Values quoted from earlier work in patent US20070264370A1, “Composition and methods for the treatment of joint pain using Angelica gigas Nakai extract and powder as combined with Glucosamine Sulfate, or Chondroitin Sulfate and HCL, or MSM, or aspirin, or Celedrin, and as combinations thereof in powder, pill, capsule, spray, liquid, and gelcap form” (priority 2006, published 2007).

Details: in mammal; oral administration in rats (Kim et al. 2003)

CC1(C)Oc2cc3oc(=O)ccc3cc2C[C@@H]1O [decursinol, Decursinol]
elimination half life (T1/2): about 3 hours
